Laboratory results published in patent US6576622B1, “Drug combination for the treatment of viral diseases” (University of Medicine & Dentistry of New Jersey, priority 1995, dated 2003).

Experiments:
[1] = system: HIV-gpt; assay: HIV-gpt colony formation in the presence of D4T; assay type: cell-based; settings: for Frequency: with D4T
Protocol: (§1) Production of recombinant HIV-gpt has been described elsewhere (26). The amphotropic cell line PA317 was transfected with the recombinant murine retrovirus pLXSN (36) and was used as the source of the recombinant MLV-neo virus. Stock preparations of HIV-1IIIB were harvested from H9 cells by the “shake off method” (13). Stock virus infectivity was determined by end-point dilution in MT-2 cells (32). Virus induced cytopathic effect was scored 7 days post-infection and the TCID50 was calculated with the Reed and Muench equation (33).
(§2) To confirm this high rate of infection in the absence of genetic drug resistance, we used several other recombinant viruses and host cells. […] A high rate of infection of Jurkat cells in the presence of d4T has also been seen.
(§3) Table 5. HIV-gpt produced in COS cells by transfection with plasmids (plasmid derived) is compared with HIV-gpt produced by, rescue from H9/HIV-gpt cell line after infection with HIV-IIIB and cells infected with MLV-neo.

[2] = system: MLV-neo; assay: MLV-neo colony formation in the presence of antiviral agents; assay type: cell-based, Moloney Leukemia virus
Protocol: as §1, §2, §3
(§4) Table 6. Colony formation and persistent resistance after Hela-T4 cell infection with MLV-neo virus in the presence and absence of various antiviral agents.

[3] = system: HIV-LacZ; assay type: cell-based
[4] = system: recombinant HIV, recombinant MLV, or replication-competent HIV; assay type: cell-based
Excerpt: The presence of a selectable marker gene in the recombinant HIV allowed the isolation of cells infected by the recombinant viruses in the presence of d4T. These cells were characterized by infection with both additional recombinant viruses and by replication-competent viruses.
as §4

[5] = system: HIV-IIIB; assay: HIV-IIIB infection of JE6.1 cells refractory to d4T, D4T IC50 with FUdr (RT activity); assay type: cell-based, HIV-1; settings: Human immunodeficiency virus 1, IIIB, 144 h, concentration of D4T for 50% inhibition of RT activity on day 6, F = uM FUdr
Protocol: Table 8. Jurkat JE6.1 cells refractory to the antiviral activity of d4T (D4T bulk, D4TR1, D4TR3) and control JE6.1 cells were infected with HIV-IIIB in the presence of 0.001 uM d4T, 0.01 uM d4T 0.1 uM d4T, 1 uM d4T, 10 uM d4T, 100 uM d4T and 1000 uM d4T in the presence of 0.005 uM FUdr, 0.01 uM FUdr or 0.25 uM FUdr.

[6] = system: HIV-gpt; assay: HIV-gpt colony formation after infection of HeLa-T4 cells in the presence of antiretroviral agents; assay type: cell-based; settings: HeLa-T4; plasmid derived HIV-gpt (COS cells); AZT 10 μM, DDI 50 μM, D4T 50 μM; no drug control 8800
[7] = system: MLV-LacZ; assay: Infection of Jurkat JE6.1 cell clones with MLV-LacZ in the presence of D4T; assay type: cell-based
Excerpt: Table 7. Infection of Jurkat JE6.1 cell clones sensitive and resistant to D4T.
** Bulk=bulk culture; R=resistant clone; C=control clone; JE6.1=parental cell line.

[8] = system: HIV-gpt; settings: in the presence of TIBO R82150; earlier study (26); cited from earlier work

SMILES: Cc1cn([C@H]2C=C[C@@H](CO)O2)c(=O)[nH]c1=O [D4T, Stavudine]
- Frequency ([1]; HIV-gpt by rescue with HIV): 1.6 × 10^3
- No. of colonies with D4T ([1]; HIV-gpt by rescue with HIV, without D4T 3.4 × 10^4): 53
- Frequency ([1]; plasmid derived HIV-gpt): 1.7 × 10^3
- No. of colonies with D4T ([1]; plasmid derived HIV-gpt, without D4T 4.7 × 10^4): 80
- No. of colonies ([2]; Hela-T4, AZT 10 uM, DDI 50 uM, DDC 10 uM, D4T 50 uM, control 9050): 63
- No. of colonies with D4T ([2]; without D4T 9.2 × 10^4): 101
- cross resistance of cell lines “persistently resistant” to AZT to other nucleoside analogs ([3]; d4T at 50 μM): partial cross resistance
- cells infected with HIV in the presence of d4T that are readily re-infected in the presence of high concentrations of d4T [4]: ~50%
- No. of persistently resistant colonies ([4]; Hela-T4, MLV-neo, AZT 10 uM, DDI 50 uM, DDC 10 uM, D4T 50 uM, resistant/tested): 23/63
- isolated cells repeatedly refractory to the antiviral effects of d4T ([4]; cells infected in the presence of d4T, re-infection at high concentrations of d4T): approximately 37%
- Frequency ([4]; frequency of persistently resistant colonies, Hela-T4, MLV-neo): 2.5 × 10^−3
- IC50 ([5]; D4TBulk cells (refractory to d4T)): 3 µM
- IC50 ([5]; D4TR1 cells (refractory to d4T)): 74 µM
- IC50 ([5]; D4TR3 cells (refractory to d4T)): 2 µM
- IC50 ([5]; JE6.1 control cells): 0.02 µM
- Number of colonies [6]: 50
- % cells infected with MLV-LacZ in the presence of D4T relative to absence of D4T ([7]; JE6.1 parental cell line, 50 uM D4T): − ((−), 20%)
- % cells infected with MLV-LacZ in the presence of D4T relative to absence of D4T ([7]; JE6.1 parental cell line, 100 uM D4T): − ((−), 20%)
- % cells infected with MLV-LacZ in the presence of D4T relative to absence of D4T ([7]; Jurkat Bulk (bulk culture), 50 uM D4T): ++ ((++) 41-60%)
- % cells infected with MLV-LacZ in the presence of D4T relative to absence of D4T ([7]; Jurkat Bulk (bulk culture), 100 uM D4T): + ((+) 21-40%)
- % cells infected with MLV-LacZ in the presence of D4T relative to absence of D4T ([7]; Jurkat control clone C2, 50 uM D4T): − ((−), 20%)
- % cells infected with MLV-LacZ in the presence of D4T relative to absence of D4T ([7]; Jurkat control clone C2, 100 uM D4T): − ((−), 20%)
- % cells infected with MLV-LacZ in the presence of D4T relative to absence of D4T ([7]; Jurkat control clone C23, 50 uM D4T): − ((−), 20%)
- % cells infected with MLV-LacZ in the presence of D4T relative to absence of D4T ([7]; Jurkat control clone C23, 100 uM D4T): − ((−), 20%)
- % cells infected with MLV-LacZ in the presence of D4T relative to absence of D4T ([7]; Jurkat control clone C26, 50 uM D4T): − ((−), 20%)
- % cells infected with MLV-LacZ in the presence of D4T relative to absence of D4T ([7]; Jurkat control clone C26, 100 uM D4T): − ((−), 20%)
- % cells infected with MLV-LacZ in the presence of D4T relative to absence of D4T ([7]; Jurkat control clone C27, 50 uM D4T): − ((−), 20%)
- % cells infected with MLV-LacZ in the presence of D4T relative to absence of D4T ([7]; Jurkat control clone C27, 100 uM D4T): − ((−), 20%)
- % cells infected with MLV-LacZ in the presence of D4T relative to absence of D4T ([7]; Jurkat resistant clone R1, 50 uM D4T): ++++ ((++++), 81-100%)
- % cells infected with MLV-LacZ in the presence of D4T relative to absence of D4T ([7]; Jurkat resistant clone R1, 100 uM D4T): ++++ ((++++), 81-100%)
- % cells infected with MLV-LacZ in the presence of D4T relative to absence of D4T ([7]; Jurkat resistant clone R3, 50 uM D4T): +++ ((+++), 61-80%)
- % cells infected with MLV-LacZ in the presence of D4T relative to absence of D4T ([7]; Jurkat resistant clone R3, 100 uM D4T): ++ ((++) 41-60%)
- % cells infected with MLV-LacZ in the presence of D4T relative to absence of D4T ([7]; Jurkat resistant clone R4, 50 uM D4T): − ((−), 20%)
- % cells infected with MLV-LacZ in the presence of D4T relative to absence of D4T ([7]; Jurkat resistant clone R4, 100 uM D4T): − ((−), 20%)
- % cells infected with MLV-LacZ in the presence of D4T relative to absence of D4T ([7]; Jurkat resistant clone R7, 50 uM D4T): − ((−), 20%)
- % cells infected with MLV-LacZ in the presence of D4T relative to absence of D4T ([7]; Jurkat resistant clone R7, 100 uM D4T): − ((−), 20%)
- % cells infected with MLV-LacZ in the presence of D4T relative to absence of D4T ([7]; Jurkat resistant clone R12, 50 uM D4T): ++++ ((++++), 81-100%)
- % cells infected with MLV-LacZ in the presence of D4T relative to absence of D4T ([7]; Jurkat resistant clone R12, 100 uM D4T): ++++ ((++++), 81-100%)
- % cells infected with MLV-LacZ in the presence of D4T relative to absence of D4T ([7]; Jurkat resistant clone R14, 50 uM D4T): + ((+) 21-40%)
- % cells infected with MLV-LacZ in the presence of D4T relative to absence of D4T ([7]; Jurkat resistant clone R14, 100 uM D4T): − ((−), 20%)
- % cells infected with MLV-LacZ in the presence of D4T relative to absence of D4T ([7]; Jurkat resistant clone R15, 50 uM D4T): ++++ ((++++), 81-100%)
- % cells infected with MLV-LacZ in the presence of D4T relative to absence of D4T ([7]; Jurkat resistant clone R15, 100 uM D4T): ++++ ((++++), 81-100%)
- % cells infected with MLV-LacZ in the presence of D4T relative to absence of D4T ([7]; Jurkat resistant clone R16, 50 uM D4T): + ((+) 21-40%)
- % cells infected with MLV-LacZ in the presence of D4T relative to absence of D4T ([7]; Jurkat resistant clone R16, 100 uM D4T): − ((−), 20%)
- % cells infected with MLV-LacZ in the presence of D4T relative to absence of D4T ([7]; Jurkat resistant clone R19, 50 uM D4T): − ((−), 20%)
- % cells infected with MLV-LacZ in the presence of D4T relative to absence of D4T ([7]; Jurkat resistant clone R19, 100 uM D4T): − ((−), 20%)
- % cells infected with MLV-LacZ in the presence of D4T relative to absence of D4T ([7]; Jurkat resistant clone R20, 50 uM D4T): ++++ ((++++), 81-100%)
- % cells infected with MLV-LacZ in the presence of D4T relative to absence of D4T ([7]; Jurkat resistant clone R20, 100 uM D4T): +++ ((+++), 61-80%)
- % cells infected with MLV-LacZ in the presence of D4T relative to absence of D4T ([7]; Jurkat resistant clone R21, 50 uM D4T): ++++ ((++++), 81-100%)
- % cells infected with MLV-LacZ in the presence of D4T relative to absence of D4T ([7]; Jurkat resistant clone R21, 100 uM D4T): ++++ ((++++), 81-100%)
- % cells infected with MLV-LacZ in the presence of D4T relative to absence of D4T ([7]; Jurkat resistant clone R22, 50 uM D4T): ++ ((++) 41-60%)
- % cells infected with MLV-LacZ in the presence of D4T relative to absence of D4T ([7]; Jurkat resistant clone R22, 100 uM D4T): + ((+) 21-40%)
- % cells infected with MLV-LacZ in the presence of D4T relative to absence of D4T ([7]; Jurkat resistant clone R26, 50 uM D4T): + ((+) 21-40%)
- % cells infected with MLV-LacZ in the presence of D4T relative to absence of D4T ([7]; Jurkat resistant clone R26, 100 uM D4T): − ((−), 20%)
- % cells infected with MLV-LacZ in the presence of D4T relative to absence of D4T ([7]; Jurkat resistant clone R29, 50 uM D4T): − ((−), 20%)
- % cells infected with MLV-LacZ in the presence of D4T relative to absence of D4T ([7]; Jurkat resistant clone R29, 100 uM D4T): − ((−), 20%)
- % cells infected with MLV-LacZ in the presence of D4T relative to absence of D4T ([7]; Jurkat resistant clone R33, 50 uM D4T): +++ ((+++), 61-80%)
- % cells infected with MLV-LacZ in the presence of D4T relative to absence of D4T ([7]; Jurkat resistant clone R33, 100 uM D4T): + ((+) 21-40%)
- % cells infected with MLV-LacZ in the presence of D4T relative to absence of D4T ([7]; Jurkat resistant clone R36, 50 uM D4T): ++++ ((++++), 81-100%)
- % cells infected with MLV-LacZ in the presence of D4T relative to absence of D4T ([7]; Jurkat resistant clone R36, 100 uM D4T): ++ ((++) 41-60%)

SMILES: CC(C)=CCN1Cc2cccc3[nH]c(=S)n(c23)C[C@@H]1C [TIBO]
- selection of cells “persistently resistant” to the antiretroviral effects of the drug ([3]; HeLa-T4, identical techniques as for nucleoside analogs): no cells “persistently resistant”
- Number of “persistently resistance” colonies ([3]; colonies from HIV-gpt infection of HeLa-T4 in presence of drug, resistant/tested): 0/3
- Frequency ([3]; frequency of persistently resistant colonies, HeLa-T4, plasmid derived HIV-gpt): 0
- prevalence of infection with COS-cell derived virus versus HIV-gpt rescued by replication-competent virus [8]: twenty fold lower
- Number of colonies [6]: 3
